In PubChem BioAssay (NCI):
Several values for one entry are separate records, joined by “and”; a condition that tells them apart may be missing. Equal entries are not always repeated.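 Exposure lasted 48 hours, with cells grown in 96-well plates and compounds tested at five concentrations. Here, GI50 denotes the concentration required for 50% inhibition of growth. TGI: concentration producing complete growth inhibition.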

Columns and labels:
Assay in all cases: inhibition of tumour cell growth, NCI panel, 48 h
[1] = system: M14 melanoma
[2] = system: HCT-15 colon
[3] = system: CCRF-CEM leukemia
[4] = system: SK-MEL-2 melanoma
[5] = system: 786-0 renal
[6] = system: NCI-H23 lung
[7] = system: OVCAR-5 ovarian
[8] = system: MALME-3M melanoma
[9] = system: HOP-62 NSCLC
[10] = system: U251 CNS
[11] = system: OVCAR-3 ovarian
[12] = system: SK-OV-3 ovarian
[13] = system: NCI-H226 lung

Structure (SMILES) | TGI [1] [µM] | TGI [2] [µM] | TGI [3] [µM] | TGI [4] [µM] | TGI [5] [µM] | TGI [6] [µM] | TGI [7] [µM] | TGI [8] [µM] | TGI [9] [µM] | TGI [10] [µM] | TGI [11] [µM] | TGI [12] [µM] | TGI [13] | GI50 [6] [µM] | GI50 [7] [µM]
COc1ccc(NC(=O)C2=C(SC)C(C#N)C(=O)N=C2N)cc1 (stereo not drawn) | > 100 | > 100 | > 100 | > 100 | > 100 | > 100 | > 100 | 76.8 | > 100 | > 100 | > 100 | > 100 | > 100 µM | – | –
CSC1=N/C(=C\c2cccs2)C(=O)N1CN1CCCCC1 | > 100 | > 100 | > 100 | > 100 | > 100 | > 100 | > 100 | > 100 | > 100 | > 100 | > 100 | > 100 | > 100 µM | – | –
CCCCCCC(N)(CCCCCC)C(=O)Nn1c(C)ccc1C | > 100 | > 100 | > 100 | > 100 | > 100 | > 100 | > 100 | > 100 | > 100 | > 100 | > 100 | > 100 | > 100 µM | – | –
NC(=S)N/N=C/c1cc(CN2CCOCC2)c(N)cn1 | 50.9 | > 100 | > 100 | > 100 | > 100 | > 100 | > 100 | > 100 | > 100 | > 100 | > 100 | > 100 | 45.8 µM | – | –
CCc1cc(Cc2cc(CC)c(NC(=O)C3=CC(=O)CC(c4ccc(OC)cc4)O3)c(CC)c2Cl)c(Cl)c(CC)c1NC(=O)C1=CC(=O)CC(c2ccc(OC)cc2)O1 (stereo not drawn) | 31.6 | 53.7 | 90.2 | 36.7 | 34.3 | 32 | 37.3 | 37.2 | 46.5 | 26.1 | 38.2 | 32.2 | 47.5 µM | – | –
CN1CC=C(OP(=O)(NCc2ccccc2)N(CCCl)CCCl)CC1 (stereo not drawn) | > 100 | > 100 | > 100 | > 100 | > 100 | > 100 | > 100 | > 100 | > 100 | > 100 | > 100 | > 100 | > 100 µM | – | –
COc1ccc2c(c1)c(Cc1c(C)n(C)c3ccc(OC)cc13)c(C)n2C | > 100 | > 100 | > 100 | > 100 | > 100 | > 100 | > 100 | > 100 | > 100 | > 100 | > 100 | > 100 | > 100 µM | – | –
O=C(O)Cc1cc(=O)oc2cc(O)c(Cl)cc12 | > 100 | > 100 | > 100 | > 100 | > 100 | > 100 | > 100 | > 100 | > 100 | > 100 | > 100 | > 100 | > 100 µM | – | –
CC[C@@]1(O)C(=O)OCc2c1c(Cl)c1n(c2=O)Cc2cc3ccccc3nc2-1 | 9.04 | > 81.6 | > 29 | 52.7 | 6.68 | 6.24 | 85.8 | 42.1 | 8.03 | 11.5 | 22.1 | 45.5 | 31.2 µM | – | –
CC(=O)NNC=N/C(C#N)=C(\N)C#N | > 100 | > 100 | > 100 | > 100 | > 100 | > 100 | > 100 | > 100 | > 100 | > 100 | > 100 | > 100 | > 100 µM | – | –
COC(=O)n1c(=O)nc2c3c(ncn21)Oc1c(c(-c2ccccc2)nn1-c1ccccc1)C3c1ccc(Cl)cc1 (stereo not drawn) | 2.75 | 2.95 | 3.27 | 3.07 | 2.81 | 3.96 | 2.58 | 2.21 | 3.09 | 3.08 | 2.72 | 12.1 | 3.42 µM | – | –
Fc1ccc(C(OCCN2CCC3CCC(C2)N3CCCc2ccccc2)c2ccc(F)cc2)cc1 (stereo not drawn) | 4.76 | 14.5 | 11.3 | 14 | 5.57 | 15 | 20.3 | 5.46 | 23.3 | 15.1 | 14.8 | 24.8 | 15.1 µM | – | –
C[N+](C)(C)CC1Cc2ccccc2C1=O (stereo not drawn) | > 6.99 | > 10 | 4.22 | > 10 | > 10 | > 10 | > 10 | 4.53 | > 10 | > 10 | > 10 | > 10 | > 10 µM | – | –
COC(=O)/C=C/c1cc(OC)c2c(c1)C(C(=O)OC)C(c1ccc(OC)c(OC)c1)O2 (stereo not drawn) | > 100 | > 100 | > 100 | > 100 | > 100 | > 100 | > 100 | > 100 | > 100 | > 100 | > 100 | > 100 | > 100 µM and 25.6 µM | > 100 | > 100
c1ccc(C2=NN(c3ccccc3)C3(S2)SC(c2ccccc2)(c2ccccc2)c2ccccc23)cc1 (stereo not drawn) | > 100 | > 100 | > 100 | > 100 | > 100 | > 100 | > 100 | > 100 | > 100 | > 100 | > 100 | > 100 | > 100 µM | – | –
COc1ccc(CCN2CCC(C#N)(c3ccc(OC)c(OC)c3)CC2)cc1OC | > 100 | > 100 | > 100 | > 100 | > 100 | > 100 | > 100 | > 100 | > 100 | > 100 | > 100 | > 100 | > 100 µM | – | –
Cc1ccc2c(ccc3c[n+]4ccccc4c(C)c32)c1 | 20.9 | > 100 | > 100 | 11.6 | 19.1 | 10.9 | 65 | 2.98 | 11.3 | 12.1 | 4.02 | 44.8 | 5.71 µM | – | –
